Results as given in ChEMBL document CHEMBL3576783, “Synthesis and evaluation of 1,2,4-triazolo[1,5-a]pyrimidines as antibacterial agents against Enterococcus faecium” (J Med Chem, 2015).
In brackets after ≈: the same amount, converted by molar mass.

System: Enterococcus faecium
Test: microbe, parasite or virus in culture
Conditions: NCTC 7171
Description: Antibacterial activity against Enterococcus faecium NCTC 7171 assessed as bacterial growth inhibition after 16-20 hrs by broth microdilution method

Row | Structure (SMILES) | MIC
1 | CC1=C(C(N)=O)C(c2ccc(N(C)C)cc2)n2nc(SCc3ccncc3)nc2N1 (stereo unspecified) | 128 µg/mL (≈ 304 µM)
2 | CC1=C(C(N)=O)C(c2ccc(N(C)C)cc2)n2nc(SCC(N)=O)nc2N1 (stereo unspecified) | > 128 µg/mL
3 | CC1=C(C(N)=O)C(c2ccc(N(C)C)cc2)n2nc(SCc3ccc(SC(F)(F)F)cc3)nc2N1 (stereo unspecified) | 8 µg/mL (≈ 15.4 µM)
4 | CC1=C(C(N)=O)C(c2ccccc2)n2nc(SCc3ccccc3)nc2N1 (stereo unspecified) | > 128 µg/mL
5 | CCOC(=O)C1=C(C)Nc2nc(SCc3ccccc3)nn2C1c1ccc(N(C)C)cc1 (stereo unspecified) | > 128 µg/mL
6 | CC1=C(C(N)=O)C(c2ccc(N)cc2)n2nc(SCc3ccccc3)nc2N1 (stereo unspecified) | > 128 µg/mL
7 | CC1=C(C(=O)Nc2ccc(C)cc2C)C(c2ccc(F)cc2)n2nc(SCc3cccc(C)c3)nc2N1 (stereo unspecified) | > 128 µg/mL
8 | CCN(CC)CCOc1ccc(C2C(C(N)=O)=C(C)Nc3nc(SCc4ccccc4)nn32)cc1 (stereo unspecified) | > 128 µg/mL
9 | CN(C)c1ccc(C2C3=C(CCCC3=O)Nc3nc(SCc4ccccc4)nn32)cc1 (stereo unspecified) | > 128 µg/mL
10 | CC1=C(C(N)=O)C(c2ccc(N(C)C)cc2)n2nc(SCc3ccc(C(F)(F)F)cc3)nc2N1 (stereo unspecified) | > 128 µg/mL
11 | COc1ccc(C2C3=C(CCCC3=O)Nc3nc(SCc4ccc(C(=O)O)cc4)nn32)cc1 (stereo unspecified) | > 128 µg/mL
12 | CC1=C(C(N)=O)C(c2ccc([N+](=O)[O-])cc2)n2nc(SCc3ccccc3)nc2N1 (stereo unspecified) | 64 µg/mL (≈ 151 µM)
13 | CC1=C(C(N)=O)C(c2ccc(OC(F)(F)F)cc2)n2nc(SCc3ccccc3)nc2N1 (stereo unspecified) | 8 µg/mL (≈ 17.3 µM)
14 | CC1=C(C(N)=O)C(c2cccs2)n2nc(SCc3ccccc3)nc2N1 (stereo unspecified) | > 128 µg/mL
15 | CC1=C(C(N)=O)C(c2ccc(C(=O)O)cc2)n2nc(SCc3ccccc3)nc2N1 (stereo unspecified) | > 128 µg/mL
16 | CC1=C(C(N)=O)C(c2ccc(C(C)C)cc2)n2nc(SCCNC(=O)OCc3ccccc3)nc2N1 (stereo unspecified) | > 128 µg/mL
17 | COc1ncccc1C1C(C(N)=O)=C(C)Nc2nc(SCc3ccccc3)nn21 (stereo unspecified) | 128 µg/mL (≈ 313 µM)
18 | CC1=C(C(N)=O)C(c2ccc(N(C)C)cc2)n2nc(SCCNC(=O)OCc3ccccc3)nc2N1 (stereo unspecified) | > 128 µg/mL
19 | CC1=C(C(N)=O)C(c2ccc(SC(F)(F)F)cc2)n2nc(SCc3ccccc3)nc2N1 (stereo unspecified) | > 128 µg/mL
20 | CC1=C(C(N)=O)C(c2ccc(Cl)cc2)n2nc(SCc3ccccc3)nc2N1 (stereo unspecified) | > 128 µg/mL
21 | CCOC(=O)C1=C(C)Nc2nc(SCc3ccc(C(=O)O)cc3)nn2C1c1cccs1 (stereo unspecified) | > 128 µg/mL

Row | Structure (SMILES) | MIC
22 | CC1=C(C(N)=O)C(c2ccc(N(C)C)cc2)n2nc(N)nc2N1 (stereo unspecified) | > 128 µg/mL
23 | CC1=C(C(N)=O)C(c2ccc(N(C)C)cc2)n2nc(SCc3ccc(C(=O)O)cc3)nc2N1 (stereo unspecified) | > 128 µg/mL
24 | CC1=C(C(N)=O)C(c2cccc(C(F)(F)F)c2)n2nc(SCc3ccccc3)nc2N1 (stereo unspecified) | 16 µg/mL (≈ 35.9 µM)
25 | CC1=C(C(=O)Nc2ccc(C)cc2C)C(c2cccs2)n2nc(SCc3cccc(Cl)c3)nc2N1 (stereo unspecified) | > 128 µg/mL
26 | CC1=C(C(N)=O)C(c2ccc(CC(C)C)cc2)n2nc(SCc3ccccc3)nc2N1 (stereo unspecified) | 8 µg/mL (≈ 18.5 µM)
27 | CC1=C(C(N)=O)C(c2ccc(N(C)C)cc2)n2nc(SCc3ccc(OC(F)(F)F)cc3)nc2N1 (stereo unspecified) | > 128 µg/mL
28 | CC1=C(C(N)=O)C(c2cccc(OC(C)C)c2)n2nc(SCc3ccccc3)nc2N1 (stereo unspecified) | > 128 µg/mL
29 | CC1=C(C(N)=O)C(c2c[nH]c3ccccc23)n2nc(SCc3ccccc3)nc2N1 (stereo unspecified) | > 128 µg/mL
30 | CC1=C(C(N)=O)C(c2ccc(N(C)C)cc2)n2nc(SCc3ccc(C)cc3)nc2N1 (stereo unspecified) | > 128 µg/mL
31 | COc1ccc(C2C(C(=O)Nc3ccc(C)cc3C)=C(C)Nc3nc(SCc4cccc(C)c4)nn32)cc1 (stereo unspecified) | > 128 µg/mL
32 | CC1=C(C(N)=O)C(c2ccc(N3CCCC3)cc2)n2nc(SCc3ccccc3)nc2N1 (stereo unspecified) | 16 µg/mL (≈ 35.8 µM)
33 | COc1ccc(C2C3=C(CCCC3=O)Nc3nc(SCc4ccc(F)cc4)nn32)cc1OC (stereo unspecified) | > 128 µg/mL
34 | COc1ccc(C2C(C(=O)Nc3ccccc3C)=C(C)Nc3nc(SCc4cc(C)ccc4C)nn32)cc1 (stereo unspecified) | > 128 µg/mL
35 | CSc1ccc(CSc2nc3n(n2)C(c2ccc(N(C)C)cc2)C(C(N)=O)=C(C)N3)cc1 (stereo unspecified) | > 128 µg/mL
36 | COc1cc(C2C(C(=O)Nc3ccc(C)cc3C)=C(C)Nc3nc(SCc4ccccc4)nn32)ccc1O (stereo unspecified) | 16 µg/mL (≈ 30.3 µM)
37 | CC1=C(C(N)=O)C(c2ncc[nH]2)n2nc(SCc3ccccc3)nc2N1 (stereo unspecified) | 32 µg/mL (≈ 87.1 µM)
38 | CC1=C(C(=O)Nc2ccccc2)C(c2ccc(C)cc2)n2nc(SCc3ccccc3C)nc2N1 (stereo unspecified) | > 128 µg/mL
39 | COc1ccc(C2C(C(N)=O)=C(C)Nc3nc(SCc4ccccc4)nn32)cc1OC (stereo unspecified) | > 128 µg/mL
40 | CC1=C(C(N)=O)C(c2cccc(C(C)C)c2)n2nc(SCc3ccccc3)nc2N1 (stereo unspecified) | 16 µg/mL (≈ 38.1 µM)
41 | O=C1CCCC2=C1C(c1ccc(Cl)cc1)n1nc(SCc3cccc4ccccc34)nc1N2 (stereo unspecified) | > 128 µg/mL
